Converted amounts (≈) assume the structure as drawn. “Also recorded” adds a separate entry of the source. Where two headings read alike, the source gives them in different places.
Assays:
M. gordonae KMC2201 = experiment: MIC, two-fold dilution, Dubos Tween albumin liquid medium; type: cell-based; conditions: Mycobacterium gordonae, read-out: minimal inhibitory concentration (MIC)
[1] = test system: M. avium-intracellulare clinical isolated strain 16; experiment: as above; type: cell-based; conditions: 336 h, read-out: minimal inhibitory concentration (MIC)
M. xenopi KMC2301 = experiment: as above; type: cell-based; conditions: Mycobacterium xenopi
M. tuberculosis H37Rv = experiment: as above; type: cell-based; conditions: Mycobacterium tuberculosis, 336 h, 37° C., 2 weeks, read-out: minimal inhibitory concentration (MIC)
Method: (§1) Fast-acid bacillus (0.01 mg) shown in Table 1 was inoculated into 2.0 ml of Dubos Tween albumin liquid medium and the minimal inhibitory concentration (MIC, μg/ml) of DO-248-A (Compound A), kanamycin (KM) and rifampicin (RFP) was measured by two-fold dilution method. The incubation temperature for Mycobacterium marinum was 28° C. and that for all other microorganisms was 37° C. The judgement was made generally 2 weeks later but 1 week later on M. furtuitum and M. chelonei and 5 weeks later on M. xenopi.

[2] = test system: M. aviumintracellulare, a causative microorganism of refractory atypical fast-acid disease; experiment: Comparative antibacterial activity, in words; type: cell-based; conditions: for activity against the pathogenic bacterium of atypical fast-acid bacterium disease relative to kanamycin: compared with kanamycin
[3] = test system: fast-acid bacteria including tubercle bacillus; experiment: Antibacterial activity against fast-acid (acid-fast) bacteria, in words; type: cell-based; conditions: for antibacterial activity against fast-acid (acid-fast) bacteria: in words
Method: as §1

M. kansasii KMC1101 = experiment: MIC, two-fold dilution, Dubos Tween albumin liquid medium; type: cell-based; conditions: Mycobacterium kansasii, read-out: minimal inhibitory concentration (MIC)
Solubility = type: physicochemical
M. bovis BCG = experiment: microbe, parasite or virus in culture; type: cell-based; conditions: Mycobacterium tuberculosis variant bovis BCG, 336 h, read-out: minimal inhibitory concentration (MIC)
[4] = test system: kanamycin-resistant strains; experiment: Antibacterial activity against resistant strains, in words; type: cell-based
Method: as §1

[5] = test system: rifanpicin-resistant strains; experiment: as above; type: cell-based
Method: as §1

[6] = test system: M. nonchromogenicum KMC3602; experiment: MIC, two-fold dilution, Dubos Tween albumin liquid medium; type: cell-based; conditions: 336 h, read-out: minimal inhibitory concentration (MIC)
M. fortuitum KMC4101 = experiment: as above; type: cell-based; conditions: Mycolicibacterium fortuitum, read-out: minimal inhibitory concentration (MIC)
[7] = test system: M. intracellulare KMC3209; experiment: as above; type: cell-based; conditions: Mycobacterium intracellulare, read-out: minimal inhibitory concentration (MIC)
M. szulgai KMC2401 = experiment: as above; type: cell-based; conditions: 336 h, read-out: minimal inhibitory concentration (MIC)
M. simiae KMC1302 = experiment: as above; type: cell-based; conditions: 336 h, read-out: minimal inhibitory concentration (MIC)
M. chelonei KMC4201 = experiment: as above; type: cell-based; conditions: read-out: minimal inhibitory concentration (MIC)
M. avium KMC3101 = experiment: as above; type: cell-based; conditions: Mycobacterium avium, read-out: minimal inhibitory concentration (MIC)
M. scrofulaceum KMC2102 = experiment: as above; type: cell-based; conditions: Mycobacterium scrofulaceum, read-out: minimal inhibitory concentration (MIC)
[8] = 336 h, M. gordonae KMC2201, 37° C., 2 weeks
[9] = M. avium-intracellulare clinical isolated strain 16, 37° C., 2 weeks
[10] = M. xenopi KMC2301, 37° C., 5 weeks, read-out: minimal inhibitory concentration (MIC)
[11] = 336 h, M. kansasii KMC1101, 37° C., 2 weeks
[12] = M. nonchromogenicum KMC3602, 37° C., 2 weeks
[13] = 168 h, M. fortuitum KMC4101, 37° C., 1 week
[14] = 336 h, M. intracellulare KMC3209, 37° C., 2 weeks
[15] = M. szulgai KMC2401, 37° C., 2 weeks
[16] = M. simiae KMC1302, 37° C., 2 weeks
[17] = 168 h, M. chelonei KMC4201, 37° C., 1 week
[18] = 336 h, M. avium KMC3101, 37° C., 2 weeks
[19] = 336 h, M. scrofulaceum KMC2102, 37° C., 2 weeks

Row | Compound | MIC (M. gordonae KMC2201; [8]) [µg/mL] | MIC [1, 9] [µg/mL] | MIC (M. xenopi KMC2301; [10]) [µg/mL] | MIC (M. tuberculosis H37Rv) [µg/mL] | activity against the pathogenic bacterium of atypical fast-acid bacterium disease relative to kanamycin [2] | antibacterial activity against fast-acid (acid-fast) bacteria [3] | MIC (M. kansasii KMC1101; [11]) [µg/mL] | MIC (M. bovis BCG) [µg/mL] | effectiveness against kanamycin-resistant strains [4] | effectiveness against rifanpicin-resistant strains [5] | MIC [6, 12] [µg/mL] | MIC (M. fortuitum KMC4101; [13]) [µg/mL] | MIC [7, 14] [µg/mL] | MIC (M. szulgai KMC2401; [15]) [µg/mL] | MIC (M. simiae KMC1302; [16]) [µg/mL] | MIC (M. chelonei KMC4201; [17]) [µg/mL] | MIC (M. avium KMC3101; [18]) [µg/mL] | MIC (M. scrofulaceum KMC2102; [19]) [µg/mL] | other results
1 | CC(C)c1c(O)cc(C(NC(=N)N)C(=O)NCC(=O)O)cc1O (stereo not drawn) [DO-248-A, N-(α-guanidino-3,5-dihydroxy-4-isopropylphenylacetyl)glycine] | 0.00625 (≈ 0.0193 µM) | 0.1 (≈ 0.308 µM) | 0.39 (≈ 1.2 µM) | 0.05 (≈ 0.154 µM) | more active | effective; also recorded: have antibacterial activity | 0.00313 (≈ 0.00965 µM) | 0.05 (≈ 0.154 µM) | effective; also recorded: have antibacterial activity | effective; also recorded: have antibacterial activity | 12.5 (≈ 38.5 µM) | > 25 | 0.025 (≈ 0.0771 µM) | 3.13 (≈ 9.65 µM) | 6.25 (≈ 19.3 µM) | > 25 | 0.78 (≈ 2.4 µM) | 0.2 (≈ 0.617 µM) | effectiveness against M. aviumintracellulare relative to kanamycin and rifanpicin ([2]; compared with kanamycin and rifanpicin): more effective; Solubility (Solubility; in acetone): slightly soluble; Solubility (Solubility; in benzene): insoluble; Solubility (Solubility; in chloroform): slightly soluble; Solubility (Solubility; in dimethylformamide): readily soluble; Solubility (Solubility; in ethanol): readily soluble; Solubility (Solubility; in ether): insoluble; Solubility (Solubility; in ethylacetate): slightly soluble; Solubility (Solubility; in hexane): insoluble; Solubility (Solubility; in methanol): readily soluble; Solubility (Solubility; in water): soluble
2 | CCc1c(O)cc(C(NC(=N)N)C(=O)NCC(=O)O)cc1O (stereo not drawn) [DO-248-B, N-(α-guanidino-3,5-dihydroxy-4-ethylphenylacetyl)glycine] |  |  |  |  | more active | effective; also recorded: have antibacterial activity |  |  | have antibacterial activity | have antibacterial activity |  |  |  |  |  |  |  |  | effectiveness relative to DO-248-A ([3]; compared with DO-248-A): as effective as DO-248-A
3 | CO[C@H]1/C=C/O[C@@]2(C)Oc3c(C)c(O)c4c(O)c(c(/C=N/N5CCN(C)CC5)c(O)c4c3C2=O)NC(=O)/C(C)=C\C=C\[C@H](C)[C@H](O)[C@@H](C)[C@@H](O)[C@@H](C)[C@H](OC(C)=O)[C@@H]1C [RFP, rifampicin] | 0.0125 (≈ 0.0152 µM) | 3.13 (≈ 3.8 µM) | 0.00625 (≈ 0.00759 µM) | < 0.001 |  |  | 0.0125 (≈ 0.0152 µM) | < 0.001 |  |  | 25 (≈ 30.4 µM) | 3.13 (≈ 3.8 µM) | < 0.001 | 0.025 (≈ 0.0304 µM) | > 25 | 6.25 (≈ 7.59 µM) | 0.2 (≈ 0.243 µM) | 0.00313 (≈ 0.0038 µM) | 
4 | NC[C@H]1O[C@H](O[C@H]2[C@H](O)[C@@H](O[C@H]3O[C@H](CO)[C@@H](O)[C@H](N)[C@H]3O)[C@H](N)C[C@@H]2N)[C@H](O)[C@@H](O)[C@@H]1O [KM, kanamycin] |  |  |  | 0.025 (≈ 0.0516 µM) |  |  |  | 0.00156 (≈ 0.00322 µM) |  |  |  |  |  |  |  |  |  |  | MIC (M. gordonae KMC2201; KMC2201, 336 h): 0.39 µg/mL (≈ 0.805 µM); MIC [1]: 6.25 µg/mL (≈ 12.9 µM); MIC (M. xenopi KMC2301; KMC2301, read-out: minimal inhibitory concentration (MIC)): 0.1 µg/mL (≈ 0.206 µM); MIC (M. kansasii KMC1101; KMC1101, 336 h): 6.25 µg/mL (≈ 12.9 µM); MIC [6]: > 25 µg/mL; MIC (M. fortuitum KMC4101; KMC4101, 168 h): 25 µg/mL (≈ 51.6 µM); MIC ([7]; KMC3209, 336 h): 0.05 µg/mL (≈ 0.103 µM); MIC (M. szulgai KMC2401): 1.56 µg/mL (≈ 3.22 µM); MIC (M. simiae KMC1302): 12.5 µg/mL (≈ 25.8 µM); MIC (M. chelonei KMC4201; KMC4201, 168 h): > 25 µg/mL; MIC (M. avium KMC3101; KMC3101, 336 h): 3.13 µg/mL (≈ 6.46 µM); MIC (M. scrofulaceum KMC2102; KMC2102, 336 h): 0.0125 µg/mL (≈ 0.0258 µM)
